Results taken from patent US20230085307A1, “PYRIDAZINONE COMPOUND AND HERBICIDE” (NISSAN CHEMICAL CORPORATION, priority 2019, published 2023).

What was measured:
barnyard grass [1] = test: Test Example 3: herbicidal effect by foliage application, Wagner pot (Table 18, symbol H); assay type: in vivo, barnyard grass (Echinochloa crus-galli); conditions: amount of applied herbicide 320 g/ha
Procedure, shortened: (§1)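 Plants were sown in alluvial soil held under 0.1–0.5 cm standing water and grown 14 days in a greenhouse at 25–30 °C. An emulsifiable formulation, water-diluted to the set dose, was then sprayed onto the foliage, and effects were scored three weeks later using previously defined criteria.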

Chinese sprangletop = test: Test Example 3: herbicidal effect by foliage application, Wagner pot (Table 18, symbol D); assay type: in vivo, chinese sprangletop (Leptochloa chinensis); conditions: amount of applied herbicide 320 g/ha
Procedure, shortened: as §1

rice flat sedge = test: Test Example 3: herbicidal effect by foliage application, Wagner pot (Table 18, symbol E); assay type: in vivo, rice flat sedge (Cyperus iria); conditions: amount of applied herbicide 320 g/ha
Procedure, shortened: as §1

southern crabgrass [2] = test: Test Example 5: herbicidal effect by foliage application, plastic box (Table 20, symbol F); assay type: in vivo, southern crabgrass (Digitaria ciliaris); conditions: for F: southern crabgrass, herbicidal effect grade: three weeks after application
Text: (§2) [Test Example 5] Herbicidal Effect Test by Foliage Application
(§3) Sterilized diluvial soil was placed in a plastic box having a length of 21 cm, a width of 13 cm, and a depth of 7 cm. The seeds of each of southern crabgrass, green foxtail, barnyard grass, wild oat, blackgrass, Italian ryegrass, windgrass, velvetleaf, redroot pigweed, lambsquarters, chickweed, false cleavers, persian speedwell, corn, soybean, rice, wheat, beet, and rapeseed were sowed in a spot-like manner and covered with the soil having a thickness of about 1.5 cm. Thereafter, the plants were grown in a greenhouse at 25° C. to 30° C. After 14-day growth of the plants, the emulsion agent of the compound of the present invention prepared according to Formulation Example 2 was diluted with water so as to achieve a predetermined herbicide amount, and the diluted emulsion agent was uniformly applied to a foliage part with a small-sized spray. Three weeks after the herbicide application, the effect of the herbicide on each plant was evaluated according to the criteria of Test Example 1.

green foxtail [3] = test: Test Example 5: herbicidal effect by foliage application, plastic box (Table 20, symbol G); assay type: in vivo, green foxtail (Setaria viridis); conditions: for G: green foxtail, herbicidal effect grade: three weeks after application
Procedure, shortened: (§4)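 Plants sown in sterilized diluvial soil and grown 14 days in a greenhouse at 25° C to 30° C, then sprayed on the foliage with the compound's emulsion diluted in water to a predetermined herbicide amount. Injury to weeds and crops scored three weeks after application on a visual rating scale.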

barnyard grass [4] = test: Test Example 5: herbicidal effect by foliage application, plastic box (Table 20, symbol H); assay type: in vivo, barnyard grass (Echinochloa crus-galli); conditions: for H: barnyard grass, herbicidal effect grade: three weeks after application
Text: as §2, §3

wild oat = test: Test Example 5: herbicidal effect by foliage application, plastic box (Table 20, symbol I); assay type: in vivo, wild oat (Avena fatua); conditions: foliage application, AAH 320 g/ha, evaluated three weeks after application
Procedure, shortened: as §4

blackgrass = test: Test Example 5: herbicidal effect by foliage application, plastic box (Table 20, symbol J); assay type: in vivo, blackgrass (Alopecurus myosuroides); conditions: foliage application, AAH 320 g/ha, evaluated three weeks after application
Procedure, shortened: as §4

Italian ryegrass = test: Test Example 5: herbicidal effect by foliage application, plastic box (Table 20, symbol K); assay type: in vivo, Italian ryegrass (Lolium multiflorum); conditions: foliage application, AAH 320 g/ha, evaluated three weeks after application
Procedure, shortened: as §4

windgrass = test: Test Example 5: herbicidal effect by foliage application, plastic box (Table 20, symbol L); assay type: in vivo, windgrass (Apera spica-venti); conditions: foliage application, AAH 320 g/ha, evaluated three weeks after application
Procedure, shortened: as §4

velvetleaf [5] = test: Test Example 5: herbicidal effect by foliage application, plastic box (Table 20, symbol M); assay type: in vivo, velvetleaf (Abutilon theophrasti); conditions: for M: velvetleaf, herbicidal effect grade: three weeks after application
Procedure, shortened: as §4

redroot pigweed [6] = test: Test Example 5: herbicidal effect by foliage application, plastic box (Table 20, symbol N); assay type: in vivo, redroot pigweed (Amaranthus retroflexus); conditions: for N: redroot pigweed, herbicidal effect grade: three weeks after application
Text: as §2, §3

lambsquarters [7] = test: Test Example 5: herbicidal effect by foliage application, plastic box (Table 20, symbol O); assay type: in vivo, lambsquarters (Chenopodium album); conditions: for O: lambsquarters, herbicidal effect grade: three weeks after application
Text: as §2, §3

chickweed = test: Test Example 5: herbicidal effect by foliage application, plastic box (Table 20, symbol P); assay type: in vivo, common chickweed (Stellaria media); conditions: foliage application, AAH 320 g/ha, evaluated three weeks after application
Text: as §2, §3

southern crabgrass [8] = test: Test Example 4: herbicidal effect by soil treatment (Table 19, symbol F); assay type: in vivo, southern crabgrass (Digitaria ciliaris); conditions: amount of applied herbicide 320 g/ha
Text: (§5) [Test Example 4] Herbicidal Effect Test by Soil Treatment
as §3, with “Subsequently,” for “Thereafter, the plants were grown in a greenhouse at 25° C. to 30° C. After 14-day growth of the plants,”, “the surface of the soil” for “a foliage part”, “spray. The plastic box was placed in a greenhouse at 25° C. to 30° C. for growth of the plants.” for “spray.”

green foxtail [9] = test: Test Example 4: herbicidal effect by soil treatment (Table 19, symbol G); assay type: in vivo, green foxtail (Setaria viridis); conditions: amount of applied herbicide 320 g/ha
Text: as §5
as §3, with “Subsequently,” for “Thereafter, the plants were grown in a greenhouse at 25° C. to 30° C. After 14-day growth of the plants,”, “the surface of the soil” for “a foliage part”, “spray. The plastic box was placed in a greenhouse at 25° C. to 30° C. for growth of the plants.” for “spray.”

barnyard grass [10] = test: Test Example 4: herbicidal effect by soil treatment (Table 19, symbol H); assay type: in vivo, barnyard grass (Echinochloa crus-galli); conditions: amount of applied herbicide 320 g/ha
Text: as §5
as §3, with “Subsequently,” for “Thereafter, the plants were grown in a greenhouse at 25° C. to 30° C. After 14-day growth of the plants,”, “the surface of the soil” for “a foliage part”, “spray. The plastic box was placed in a greenhouse at 25° C. to 30° C. for growth of the plants.” for “spray.”

velvetleaf [11] = test: Test Example 4: herbicidal effect by soil treatment (Table 19, symbol M); assay type: in vivo, velvetleaf (Abutilon theophrasti); conditions: amount of applied herbicide 320 g/ha
Text: as §5
as §3, with “Subsequently,” for “Thereafter, the plants were grown in a greenhouse at 25° C. to 30° C. After 14-day growth of the plants,”, “the surface of the soil” for “a foliage part”, “spray. The plastic box was placed in a greenhouse at 25° C. to 30° C. for growth of the plants.” for “spray.”

redroot pigweed [12] = test: Test Example 4: herbicidal effect by soil treatment (Table 19, symbol N); assay type: in vivo, redroot pigweed (Amaranthus retroflexus); conditions: amount of applied herbicide 320 g/ha
Text: as §5
as §3, with “Subsequently,” for “Thereafter, the plants were grown in a greenhouse at 25° C. to 30° C. After 14-day growth of the plants,”, “the surface of the soil” for “a foliage part”, “spray. The plastic box was placed in a greenhouse at 25° C. to 30° C. for growth of the plants.” for “spray.”

lambsquarters [13] = test: Test Example 4: herbicidal effect by soil treatment (Table 19, symbol O); assay type: in vivo, lambsquarters (Chenopodium album); conditions: amount of applied herbicide 320 g/ha
Text: as §5
as §3, with “Subsequently,” for “Thereafter, the plants were grown in a greenhouse at 25° C. to 30° C. After 14-day growth of the plants,”, “the surface of the soil” for “a foliage part”, “spray. The plastic box was placed in a greenhouse at 25° C. to 30° C. for growth of the plants.” for “spray.”

[14] = foliage application, AAH 320 g/ha, evaluated three weeks after application
[15] = 320 g/ha, foliage application after 14-day growth, evaluated three weeks after application

SMILES	herbicidal effect on H: barnyard grass (barnyard grass [1])	herbicidal effect on D: Chinese sprangletop (Chinese sprangletop)	herbicidal effect on E: rice flat sedge (rice flat sedge)	herbicidal effect, F: southern crabgrass (southern crabgrass [8])	herbicidal effect, G: green foxtail (green foxtail [9])	herbicidal effect, H: barnyard grass (barnyard grass [10])	herbicidal effect, M: velvetleaf (velvetleaf [11])	herbicidal effect, N: redroot pigweed (redroot pigweed [12])	herbicidal effect, O: lambsquarters (lambsquarters [13])	F: southern crabgrass, herbicidal effect grade (southern crabgrass [2]; foliage application, 320 g/ha)	G: green foxtail, herbicidal effect grade (green foxtail [3]; foliage application, 320 g/ha)	H: barnyard grass, herbicidal effect grade (barnyard grass [4]; foliage application, 320 g/ha)	M: velvetleaf, herbicidal effect grade (velvetleaf [5]; foliage application, 320 g/ha)	N: redroot pigweed, herbicidal effect grade (redroot pigweed [6]; foliage application, 320 g/ha)	O: lambsquarters, herbicidal effect grade (lambsquarters [7]; foliage application, 320 g/ha)	other results
COC(=O)COc1c(C)nn(C)c(=O)c1-c1c(-c2ccc(OC(F)F)cc2)sc2ccc(F)cc12 [2-306]	3 (Herbicidal rate of 40% or more and less than 70%)	3 (Herbicidal rate of 40% or more and less than 70%)	3 (Herbicidal rate of 40% or more and less than 70%)													F: southern crabgrass, herbicidal effect (criteria 0-5) (southern crabgrass [2]; [14]): 0 (Herbicidal rate of 5% or less (almost no effect)); G: green foxtail, herbicidal effect (criteria 0-5) (green foxtail [3]; [14]): 0 (Herbicidal rate of 5% or less (almost no effect)); H: barnyard grass, herbicidal effect (criteria 0-5) (barnyard grass [4]; [14]): 0 (Herbicidal rate of 5% or less (almost no effect)); I: wild oat, herbicidal effect (criteria 0-5) (wild oat): 0 (Herbicidal rate of 5% or less (almost no effect)); J: blackgrass, herbicidal effect (criteria 0-5) (blackgrass): 0 (Herbicidal rate of 5% or less (almost no effect)); K: Italian ryegrass, herbicidal effect (criteria 0-5) (Italian ryegrass): 0 (Herbicidal rate of 5% or less (almost no effect)); L: windgrass, herbicidal effect (criteria 0-5) (windgrass): 0 (Herbicidal rate of 5% or less (almost no effect)); M: velvetleaf, herbicidal effect (criteria 0-5) (velvetleaf [5]; [14]): 0 (Herbicidal rate of 5% or less (almost no effect)); N: redroot pigweed, herbicidal effect (criteria 0-5) (redroot pigweed [6]; [14]): 0 (Herbicidal rate of 5% or less (almost no effect)); O: lambsquarters, herbicidal effect (criteria 0-5) (lambsquarters [7]; [14]): 2 (Herbicidal rate of 20% or more and less than 40%); P: chickweed, herbicidal effect (criteria 0-5) (chickweed): 5 (Herbicidal rate of 90% or more (almost completely withered))
COCCOc1ccc(-c2sc3ccc(F)cc3c2-c2c(O)c(N)nn(C)c2=O)cc1 [2-456]	3 (Herbicidal rate of 40% or more and less than 70%)	0 (Herbicidal rate of 5% or less (almost no effect))	0 (Herbicidal rate of 5% or less (almost no effect))	0 (Herbicidal rate of 5% or less (almost no effect))	0 (Herbicidal rate of 5% or less (almost no effect))	0 (Herbicidal rate of 5% or less (almost no effect))	0 (Herbicidal rate of 5% or less (almost no effect))	5 (Herbicidal rate of 90% or more (almost completely withered))	3 (Herbicidal rate of 40% or more and less than 70%)	0 (Herbicidal rate of 5% or less (almost no effect))	1 (Herbicidal rate of 5% or more and less than 20%)	2 (Herbicidal rate of 20% or more and less than 40%)	3 (Herbicidal rate of 40% or more and less than 70%)	4 (Herbicidal rate of 70% or more and less than 90%)	3 (Herbicidal rate of 40% or more and less than 70%)	
Cc1nn(C)c(=O)c(-c2c(-c3ccsc3)sc3ccc(F)cc23)c1O [2-463]	3 (Herbicidal rate of 40% or more and less than 70%)	0 (Herbicidal rate of 5% or less (almost no effect))	0 (Herbicidal rate of 5% or less (almost no effect))	2 (Herbicidal rate of 20% or more and less than 40%)	0 (Herbicidal rate of 5% or less (almost no effect))	3 (Herbicidal rate of 40% or more and less than 70%)	3 (Herbicidal rate of 40% or more and less than 70%)	4 (Herbicidal rate of 70% or more and less than 90%)	3 (Herbicidal rate of 40% or more and less than 70%)	4 (Herbicidal rate of 70% or more and less than 90%)	3 (Herbicidal rate of 40% or more and less than 70%)	3 (Herbicidal rate of 40% or more and less than 70%)	5 (Herbicidal rate of 90% or more (almost completely withered))	5 (Herbicidal rate of 90% or more (almost completely withered))	3 (Herbicidal rate of 40% or more and less than 70%)	
Cc1ccc2c(-c3c(O)c(C)nn(C)c3=O)c(-c3ccc(OC(F)(F)F)cc3)sc2c1 [3-168]																Herbicidal effect by soil treatment, F: southern crabgrass (southern crabgrass [8]): 0 (Herbicidal rate of 5% or less (almost no effect)); Herbicidal effect by soil treatment, G: green foxtail (green foxtail [9]): 0 (Herbicidal rate of 5% or less (almost no effect)); Herbicidal effect by soil treatment, H: barnyard grass (barnyard grass [10]): 0 (Herbicidal rate of 5% or less (almost no effect)); Herbicidal effect by soil treatment, M: velvetleaf (velvetleaf [11]): 0 (Herbicidal rate of 5% or less (almost no effect)); Herbicidal effect by soil treatment, N: redroot pigweed (redroot pigweed [12]): 3 (Herbicidal rate of 40% or more and less than 70%); Herbicidal effect by soil treatment, O: lambsquarters (lambsquarters [13]): 0 (Herbicidal rate of 5% or less (almost no effect)); herbicidal effect on F: southern crabgrass (evaluation grade 0-5) (southern crabgrass [2]; [15]): 0 (Herbicidal rate of 5% or less (almost no effect)); herbicidal effect on G: green foxtail (evaluation grade 0-5) (green foxtail [3]; [15]): 0 (Herbicidal rate of 5% or less (almost no effect)); herbicidal effect on H: barnyard grass (evaluation grade 0-5) (barnyard grass [4]; [15]): 0 (Herbicidal rate of 5% or less (almost no effect)); herbicidal effect on M: velvetleaf (evaluation grade 0-5) (velvetleaf [5]; [15]): 0 (Herbicidal rate of 5% or less (almost no effect)); herbicidal effect on N: redroot pigweed (evaluation grade 0-5) (redroot pigweed [6]; [15]): 2 (Herbicidal rate of 20% or more and less than 40%); herbicidal effect on O: lambsquarters (evaluation grade 0-5) (lambsquarters [7]; [15]): 3 (Herbicidal rate of 40% or more and less than 70%)
